Data as given in article PMC9919513, “A Practical Approach to Bicyclic Carbamoyl Pyridones with Application to the Synthesis of HIV-1 Integrase Strand Transfer Inhibitors” (Molecules, 2023).

These compounds were tested on HIV-1 vectors bearing the S230N IN mutant (assay: Single-round HIV-1 replication antiviral assay, S230N IN mutant). Conditions: EC50 of saturated 7 over EC50 of unsaturated 6, S230N IN.
Assay type: cell-based
Excerpt: To further evaluate the antiviral activities of select compounds, we determined their EC50 values against the IN mutant S230N, which has been selected in vitro against an early Merck INSTI L810,830, a prototype for naphthyridine analogs.
Human embryonic kidney cell culture cell line 293 was acquired from the American Type Culture Collection (ATCC). The human osteosarcoma cell line, HOS, was obtained from Dr. Richard Schwartz (Michigan State University, East Lansing, MI, USA) and grown in Dulbecco’s modified Eagle’s medium (Invitrogen, Carlsbad, CA, USA) supplemented with 5% (v/v) fetal bovine serum, 5% newborn calf serum, and penicillin (50 units/mL) plus streptomycin (50 µg/mL; Quality Biological, Gaithersburg, MD, USA). The transfection vector, pNLNgoMIVR-ΔLUC was made from pNLNgoMIVR-ΔEnv.HSA by removing the HSA reporter gene and replacing it with a luciferase reporter gene between the NotI and XhoI restriction sites. To produce the new IN mutant S230N used in this study, the IN open reading frame was removed from pNLNgoMIVR-ΔENV.LUC by digestion with KpnI and SalI, and the resulting fragment was inserted between the KpnI and SalI sites of pBluescript KS+. Using that construct as the wild-type template, we prepared the following HIV-1 IN mutant S230N using the QuikChange II XL site-directed mutagenesis kit (Agilent Technologies, Santa Clara, CA, USA) protocol. The following sense oligonucleotides were used with matching cognate antisense oligonucleotides (not shown) (Integrated DNA Technologies, Coralville, IA, USA) in the mutagenesis: S230N 5′-[…]-3′. The DNA sequence of the IN mutant S230N construct was verified independently by DNA sequence determination. The mutated IN coding sequences from pBluescript KS+ were then subcloned into pNLNgoMIVR-ΔEnv.LUC (between the KpnI and SalI sites) to produce mutant HIV-1 constructs, which were also checked by DNA sequencing. […]. On the day prior to transfection, 293 cells were plated on 100 mm diameter dishes at a density of 1.5 × 10^6 cells per plate. Next, 293 cells were transfected with 16 µg of pNLNgoMIVR^-ΔLUC and 4 µg of pHCMV-g (obtained from Dr. Jane Burns, University of California, San Diego) using the calcium phosphate method. At approximately 6 h after the calcium phosphate precipitate was added, 293 cells were washed twice with phosphate-buffered saline (PBS) and incubated with fresh media for 48 h. The virus-containing supernatants were then harvested, clarified by low-speed centrifugation, filtrated, and diluted for preparation in antiviral infection assays. On the day prior to the screen, HOS cells were seeded in a 96-well luminescence cell culture plate at a density of 4000 cells in 100 µL per well. On the day of the screen for cellular cytotoxicity determination, cells were treated with compounds from a concentration range of 250 µM to 0.05 µM and then incubated at 37 °C for 48 h. On the day of the screen for antiviral activity infection assays, cells were treated with compounds from a concentration range of 5 µM to 0.0001 µM using 11 serial dilutions and then incubated at 37 °C for 3 h. After compound incorporation and activation in the cell, 100 µL of virus-stock (WT or mutant) diluted to achieve a luciferase signal between 0.2 and 1.5 Relative Luciferase Units (RLUs) was added to each well and further incubated at 37 °C for 48 h. Cellular cytotoxicity was measured by using the ATP Lite Luminescence detection system and monitored by adding 50 µL of cell lysis buffer from the Luminescence ATP detection assay to each well followed by mixing at 700 rpm at room temperature for 5 min using a compact thermomixer. […]
In the case of `O=C(NCc1ccc(F)cc1F)c1cn2c(c(O)c1=O)C(=O)N(CCCCO)CC2` [Compound 7e, N-(2,4-Difluorobenzyl)-9-hydroxy-2-(4-hydroxybutyl)-1,8-dioxo-1,3,4,8-tetrahydro-2H-pyrido [1,2-a]pyrazine-7-carboxamide], the “Ratio of the antiviral potencies after and before hydrogenation (S230N)” value is reported as 3.28.

Same assay, conditions: Human immunodeficiency virus 1, HOS, 48 h, read-out: EC50, antiviral potency, S230N IN mutant
`O=C(NCc1ccc(F)cc1F)c1cn2ccn(CCCCO)c(=O)c2c(O)c1=O` [Compound 6e, N-(2,4-Difluorobenzyl)-9-hydroxy-2-(4-hydroxybutyl)-1,8-dioxo-1,8-dihydro-2H-pyrido [1,2-a]pyrazine-7-carboxamide] gave an EC50 of 30.7 nM.
With `O=C(NCc1ccc(F)cc1F)c1cn2c(c(O)c1=O)C(=O)N(CCCCCCO)CC2` [Compound 7c, N-(2,4-Difluorobenzyl)-9-hydroxy-2-(6-hydroxyhexyl)-1,8-dioxo-1,3,4,8-tetrahydro-2H-pyrido [1,2-a]pyrazine-7-carboxamide] the EC50 was 38 nM.
With `O=C(NCc1ccc(F)cc1F)c1cn2c(c(O)c1=O)C(=O)N(CCCCO)CC2` [Compound 7e, N-(2,4-Difluorobenzyl)-9-hydroxy-2-(4-hydroxybutyl)-1,8-dioxo-1,3,4,8-tetrahydro-2H-pyrido [1,2-a]pyrazine-7-carboxamide] the EC50 was 101 nM.
`O=C(NCc1ccc(F)cc1F)c1cn2ccn(CCCCCCO)c(=O)c2c(O)c1=O` [Compound 6c, N-(2,4-Difluorobenzyl)-9-hydroxy-2-(6-hydroxyhexyl)-1,8-dioxo-1,8-dihydro-2H-pyrido [1,2-a]pyrazine-7-carboxamide] gave an EC50 of 9.3 nM.
Compound `O=C(NCc1ccc(F)cc1F)c1cn2ccn(CCCCCO)c(=O)c2c(O)c1=O` [Compound 6d, N-(2,4-Difluorobenzyl)-9-hydroxy-2-(5-hydroxypentyl)-1,8-dioxo-1,8-dihydro-2H-pyrido [1,2-a]pyrazine-7-carboxamide] has an EC50 of 15.4 nM.
